± gives the expanded uncertainty stated by the source. One block for each compound: values may come before it.
Settings: Liquid

vapor or sublimation pressure (247.76 K): 1 kPa
vapor or sublimation pressure (272.96 K): 6 kPa
vapor or sublimation pressure (293.23 K): 17 ± 12 kPa
vapor or sublimation pressure (293.41 K): 17 ± 12 kPa
vapor or sublimation pressure (313.33 K): 40 ± 12 kPa
vapor or sublimation pressure (313.35 K): 40 ± 12 kPa
SMILES: CCSC [2-thiabutane]

vapor or sublimation pressure (252.89 K): 8 ± 12 kPa
vapor or sublimation pressure (253.06 K): 8 ± 12 kPa
vapor or sublimation pressure (272.76 K): 22 ± 12 kPa
vapor or sublimation pressure (278.46 K): 29 ± 12 kPa
vapor or sublimation pressure (293.16 K): 53 ± 12 kPa
vapor or sublimation pressure (293.43 K): 54 ± 12 kPa
vapor or sublimation pressure (313.3 K): 112 ± 12 kPa
vapor or sublimation pressure (313.43 K): 112 ± 12 kPa
SMILES: CSC [2-thiapropane]

vapor or sublimation pressure (272.94 K): 25 ± 12 kPa
vapor or sublimation pressure (293.36 K): 59 ± 12 kPa
vapor or sublimation pressure (313.41 K): 121 ± 12 kPa
SMILES: CCS [ethanethiol]

Second part, the compound before the results:

SMILES: S=C=S [carbon disulfide]
vapor or sublimation pressure (273.08 K): 17 ± 12 kPa
vapor or sublimation pressure (298.4 K): 49 ± 12 kPa
vapor or sublimation pressure (323.5 K): 116 ± 12 kPa
vapor or sublimation pressure (348.45 K): 240 ± 12 kPa

SMILES: S [hydrogen sulfide]
vapor or sublimation pressure (273.08 K): 1033 ± 17 kPa
vapor or sublimation pressure (298.4 K): 2024 ± 26 kPa
vapor or sublimation pressure (323.5 K): 3564 ± 44 kPa
vapor or sublimation pressure (348.45 K): 5812 ± 72 kPa

SMILES: CS [methanethiol]
vapor or sublimation pressure (243.19 K): 20 ± 12 kPa
vapor or sublimation pressure (258 K): 42 ± 12 kPa
vapor or sublimation pressure (272.98 K): 80 ± 12 kPa
vapor or sublimation pressure (293.35 K): 170 ± 12 kPa
vapor or sublimation pressure (298.23 K): 200 ± 12 kPa
